Five molecules from patent US20260184710A1, “CASITAS B-LINEAGE LYMPHOMA PROTOONCOGENE B (CBL-B) DEGRADING COMPOUNDS AND ASSOCIATED METHODS OF USE” (Arvinas Operations, Inc., priority 2022, published 2026) can be followed below.

This test concerns the target T1, Cbl-b (Homo sapiens, UniProt Q13191).
T1 construct: Cbl-b-HiBit KI Jurkat Cells were purchased from Promega; host or cells: Cbl-b-HiBiT knock-in Jurkat cells
As to the kind of experiment: Cbl-b Degradation Method B (Nano-Glo HiBiT lytic detection). The format is cell-based. As to conditions: Cbl-b-HiBit KI Jurkat Cells, incubated at least 6-24 hours; for DC50: half maximal degradation, read-out: Cbl-b Degredation Method B IC50; for Dmax: maximum degradation observed, read-out: Cbl-b Degredation Method B Dmax (%). An outline of the steps:
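An 11-point, 3-fold compound dilution was applied for 6-24 hours to Jurkat cells carrying HiBiT-tagged endogenous Cbl-b. Lytic HiBiT luminescence quantified residual protein. Outputs are DC50 and Dmax relative to DMSO control.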

T1 sequence (Q13191 whole entry): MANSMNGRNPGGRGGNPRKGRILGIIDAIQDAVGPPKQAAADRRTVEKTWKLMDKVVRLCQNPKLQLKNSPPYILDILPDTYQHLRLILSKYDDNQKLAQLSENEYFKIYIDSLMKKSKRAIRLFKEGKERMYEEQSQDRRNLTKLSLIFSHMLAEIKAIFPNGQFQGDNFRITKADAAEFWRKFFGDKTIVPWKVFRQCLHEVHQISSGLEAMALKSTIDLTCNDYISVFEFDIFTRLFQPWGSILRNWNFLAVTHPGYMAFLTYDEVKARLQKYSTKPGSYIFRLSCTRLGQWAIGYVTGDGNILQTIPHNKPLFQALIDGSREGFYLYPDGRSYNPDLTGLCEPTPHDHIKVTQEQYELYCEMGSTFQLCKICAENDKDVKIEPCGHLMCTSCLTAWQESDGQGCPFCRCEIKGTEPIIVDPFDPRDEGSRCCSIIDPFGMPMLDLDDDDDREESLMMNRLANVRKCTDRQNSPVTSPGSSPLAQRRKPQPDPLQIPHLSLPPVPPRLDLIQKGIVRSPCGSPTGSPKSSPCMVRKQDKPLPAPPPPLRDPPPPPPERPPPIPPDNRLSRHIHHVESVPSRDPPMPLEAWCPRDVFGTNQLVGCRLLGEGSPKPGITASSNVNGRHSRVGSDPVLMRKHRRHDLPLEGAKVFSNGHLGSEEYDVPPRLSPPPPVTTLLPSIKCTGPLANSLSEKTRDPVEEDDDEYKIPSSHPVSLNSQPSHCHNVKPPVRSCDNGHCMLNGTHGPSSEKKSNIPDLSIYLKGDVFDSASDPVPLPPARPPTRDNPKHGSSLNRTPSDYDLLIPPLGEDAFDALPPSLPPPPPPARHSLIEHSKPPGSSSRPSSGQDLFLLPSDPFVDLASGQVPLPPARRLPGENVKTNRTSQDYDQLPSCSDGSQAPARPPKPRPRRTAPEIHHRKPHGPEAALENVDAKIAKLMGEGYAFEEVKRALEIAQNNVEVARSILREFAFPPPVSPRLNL

With `Cn1cnnc1CC(C)(C)c1cccc(N2Cc3c(cc(CN4CCC[C@H](CN5CCN(C[C@H]6CC[C@@H](OC7CCN(c8ccc9c(c8F)CN(C8CCC(=O)NC8=O)C9=O)CC7)CC6)CC5)C4)cc3C(F)(F)F)C2=O)c1` (stereo partly drawn) [Example 164, 3-[4-fluoro-1-oxo-5-(4-{[(1r,4r)-4-[(4-{[(3S)-1-[(2-{3-[2-methyl-1-(4-methyl-4H-1,2,4-triazol-3-yl)propan-2-yl]phenyl}-3-oxo-7-(trifluoromethyl)-2,3-dihydro-1H-isoindol-5-yl)methyl]piperidin-3-yl]methyl}piperazin-1-yl)methyl]cyclohexyl]oxy}piperidin-1-yl)-2,3-dihydro-1H-isoindol-2-yl]piperidine-2,6-dione], the DC50 is < 5 nM and the greatest degradation seen (Dmax) was > 70%.

In the case of `Cn1cnnc1C[C@]1(c2cccc(N3Cc4c(cc(CN5CCC[C@H](CN6CCN(C[C@H]7CC[C@H](OC8CCN(c9ccc%10c(c9F)CN(C9CCC(=O)NC9=O)C%10=O)CC8)CC7)CC6)C5)cc4C(F)(F)F)C3=O)c2)C[C@@H](C#N)C1` (stereo partly drawn) [Example 168, (1r,3r)-3-[(4-methyl-4H-1,2,4-triazol-3-yl)methyl]-3-[3-(1-oxo-6-{[(3S)-3-[(4-{[(1r,4r)-4-({1-[2-(2,6-dioxopiperidin-3-yl)-4-fluoro-1-oxo-2,3-dihydro-1H-isoindol-5-yl]piperidin-4-yl}oxy)cyclohexyl]methyl}piperazin-1-yl)methyl]piperidin-1-yl]methyl}-4-(trifluoromethyl)-2,3-dihydro-1H-isoindol-2-yl)phenyl]cyclobutane-1-carbonitrile], the DC50 is < 5 nM and the Dmax was in the range of 35 to 70%.

For the molecule `Cc1cc(N2CCC(CN3CCCN(c4cc5c(c(C(F)(F)F)c4)CN(c4cccc([C@]6(Cc7nncn7C)C[C@@H](C#N)C6)c4)C5=O)CC3)CC2)c(F)c2c1C(=O)N(C1CCC(=O)NC1=O)C2` (stereo partly drawn) [Example 170, (1r,3r)-3-(3-{6-[4-({1-[2-(2,6-dioxopiperidin-3-yl)-4-fluoro-7-methyl-1-oxo-2,3-dihydro-1H-isoindol-5-yl]piperidin-4-yl}methyl)-1,4-diazepan-1-yl]-1-oxo-4-(trifluoromethyl)-2,3-dihydro-1H-isoindol-2-yl}phenyl)-3-[(4-methyl-4H-1,2,4-triazol-3-yl)methyl]cyclobutane-1-carbonitrile], the DC50 was > 500 nM.

For the molecule `CC1c2nc(N3CCC(O[C@H]4CC[C@H](CN5CCCN(c6cc7c(c(C(F)(F)F)c6)CN(c6cccc([C@]8(Cc9nncn9C)C[C@@H](C#N)C8)c6)C7=O)CC5)CC4)CC3)ccc2C(=O)N1C1CCC(=O)NC1=O` (stereo partly drawn) [Example 180, (1r,3r)-3-[(4-methyl-4H-1,2,4-triazol-3-yl)methyl]-3-{3-[1-oxo-6-(4-{[(1r,4r)-4-({1-[6-(2,6-dioxopiperidin-3-yl)-7-methyl-5-oxo-5H,6H,7H-pyrrolo[3,4-b]pyridin-2-yl]piperidin-4-yl}oxy)cyclohexyl]methyl}-1,4-diazepan-1-yl)-4-(trifluoromethyl)-2,3-dihydro-1H-isoindol-2-yl]phenyl}cyclobutane-1-carbonitrile], the DC50 was < 5 nM and the Dmax is < 35%.

In the case of `CC1c2nc(N3CCC(O[C@H]4CC[C@H](CN5C[C@@H]6C[C@H]5CN6c5cc6c(c(C(F)(F)F)c5)CN(c5cccc([C@]7(Cc8nncn8C)C[C@H](C#N)C7)c5)C6=O)CC4)CC3)ccc2C(=O)N1C1CCC(=O)NC1=O` (stereo partly drawn) [Example 182, (1r,3r)-3-[(4-methyl-4H-1,2,4-triazol-3-yl)methyl]-3-(3-{1-oxo-6-[(1S,4S)-5-{[(1r,4r)-4-({1-[6-(2,6-dioxopiperidin-3-yl)-7-methyl-5-oxo-5H,6H,7H-pyrrolo[3,4-b]pyridin-2-yl]piperidin-4-yl}oxy)cyclohexyl]methyl}-2,5-diazabicyclo[2.2.1]heptan-2-yl]-4-(trifluoromethyl)-2,3-dihydro-1H-isoindol-2-yl}phenyl)cyclobutane-1-carbonitrile], the DC50 was in the range of 5 to 50 nM and the Dmax was < 35%.

What is called Dmax is the largest share of the target that was removed.
